Source: ChEMBL document CHEMBL1770078, “Discovery of a potent peptidic cyclophilin A inhibitor Trp-Gly-Pro” (Eur J Med Chem, 2011)
pIC50, pKd: −log10 of the molar value. Where a SMILES comes first, the peptide text is derived from it.

Tests used:
[1] = target: T1, Peptidyl-prolyl cis-trans isomerase A (Homo sapiens, UniProt P62937); assay: Binding affinity to Cyclophilin A
Target sequence in this assay (P62937 whole entry): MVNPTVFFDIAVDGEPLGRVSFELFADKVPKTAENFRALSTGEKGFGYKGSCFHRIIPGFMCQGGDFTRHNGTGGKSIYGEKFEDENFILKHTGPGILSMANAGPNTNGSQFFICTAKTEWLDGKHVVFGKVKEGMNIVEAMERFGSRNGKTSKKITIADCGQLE

[2] = target: T1, Peptidyl-prolyl cis-trans isomerase A; assay: Inhibition of PPIase activity of Cyclophilin A by Spectrophotometry
[3] = tested on: SK-HEP1; assay: Cytotoxicity against human SKHEP1 cells upto 100 uM after 48 hrs by MTT assay; assay type: cell-based; conditions: sk-hep1, 48 h
[4] = tested on: Human immunodeficiency virus 1; assay: Antiviral activity against HIV1 3B infected in human MT2 cells assessed as inhibition of viral replication at 1 mM after 48 hrs by flow cytometry; assay type: functional; conditions: Human immunodeficiency virus 1, 3B, MT2, 48 h

pKd ([1]; read-out: Kd) | inhibition [2] | pIC50 ([2]; read-out: IC50) | Structure (SMILES) | Activity [3] | inhibition at 1000 µM [4] | Kd [1] | IC50 [2]
5.47 | Dose-dependent effect | 7.48 | N[C@@H](Cc1c[nH]c2ccccc12)C(=O)NCC(=O)N1CCC[C@H]1C(=O)O (H-Trp-Gly-Pro-OH) | Non-toxic | 75.5% |  | 
 |  |  | N[C@@H](Cc1ccc(O)cc1)C(=O)NCC(=O)N1CCC[C@H]1C(=O)O (H-Tyr-Gly-Pro-OH) |  |  | Not Active | Not Active
 |  |  | C[C@H](NC(=O)[C@@H](N)Cc1c[nH]c2ccccc12)C(=O)NCC(=O)N1CCC[C@H]1C(=O)O (H-WAGP-OH) |  |  | Not Active | Not Active
